biological target: human PD-L1 (Homo sapiens (Human), UniProt Q9NZQ7); experiment: Enzyme-Linked Immunosorbent Assay (ELISA), PD-1/PD-L1 binding; conditions: PD-1/PD-L1 ELISA, human PD-L1 coated plates, Table 1
How it was run: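 Plates coated with […] human PD-L1 overnight at 4° C, blocked, then 1:5 serial compound dilutions added with human PD-1 […] 0.31 μg/mL for 1 h at 37° C. Bound PD-1 detected with streptavidin-HRP and TMB (20 min, 37° C); absorbance read at 450 nm after H2SO4 stop.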

Chain of human PD-L1 (Q9NZQ7 19-239): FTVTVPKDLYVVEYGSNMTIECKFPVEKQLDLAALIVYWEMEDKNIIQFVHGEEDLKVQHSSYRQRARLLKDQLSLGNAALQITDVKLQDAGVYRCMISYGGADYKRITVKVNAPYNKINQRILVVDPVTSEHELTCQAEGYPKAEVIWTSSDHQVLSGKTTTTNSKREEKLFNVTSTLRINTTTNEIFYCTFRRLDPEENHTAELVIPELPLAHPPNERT

SMILES	IC50
COc1cc(-c2cccc(-c3cccc(Nc4nccc5nccnc45)c3C)c2C)cc(F)c1CN[C@@H]1CNC(=O)C1 [Example 1.206]	< 10 nM
COc1cc(-c2cccc(-c3cccc(Nc4cccc5nccnc45)c3C)c2C)cc(F)c1CN1CC(C(=O)O)C1 [Example 1.248]	10 to 1000 nM
COc1cc(-c2cccc(-c3cccc(NC(=O)c4c[nH]c(=O)n(C)c4=O)c3C)c2C)cc(F)c1CNCC(N)=O [Example 1.252]	10 to 1000 nM
COc1cc(-c2cccc(-c3cccc(NC(=O)c4cncn(C)c4=O)c3C)c2C)cc(F)c1CNCC(=O)O [Example 1.267]	< 10 nM
COc1cc(-c2cccc(-c3cccc(NC(=O)C4CCN(CCO)CC4)c3C)c2C)cc(F)c1CN [Example 1.393]	10 to 1000 nM
COc1cc(-c2cccc(-c3cccc(NC(=O)c4ccc(CO)cn4)c3C)c2C)cc(F)c1CN1CC(C(=O)O)C1 [Example 1.342]	< 10 nM
COC(=O)c1ccc(C(=O)Nc2cccc(-c3cccc(-c4cc(F)c(CNCCO)c(OC)c4)c3C)c2C)nc1 [Example 1.334]	10 to 1000 nM
COc1cc(-c2cccc(-c3cccc(Nc4nccc5nccnc45)c3C)c2C)cc(F)c1CNCC(=O)O [Example 1.240]	< 10 nM
COc1cc(-c2cccc(-c3cccc(NC(=O)c4ccc(C(=O)NCCO)cn4)c3C)c2C)cc(F)c1CN1CC(C(=O)O)C1 [Example 1.285]	< 10 nM
COc1cc(-c2cccc(-c3cccc(NC(=O)c4ccccn4)c3C)c2C)cc(F)c1CN1CCC[C@H](C(=O)O)C1 [Example 1.355]	10 to 1000 nM
COc1cc(-c2cccc(-c3cccc(NC(=O)c4ccccn4)c3C)c2C)cc(F)c1CNCCO [Example 1.396]	< 10 nM
COc1cc(-c2cccc(-c3cccc(Nc4cccc5ncn(C)c(=O)c45)c3C)c2C)cc(F)c1CN1CC(C(=O)O)C1 [Example 1.287]	< 10 nM
COc1cc(-c2cccc(-c3cccc(NC(=O)c4ccnc(N)n4)c3C)c2C)cc(F)c1CN1CC(C(=O)O)C1 [Example 1.347]	10 to 1000 nM
COc1ccc(C(=O)Nc2cccc(-c3cccc(-c4cc(F)c(CN5CC(C(=O)O)C5)c(OC)c4)c3C)c2C)nc1 [Example 1.351]	< 10 nM

same assay, conditions: human PD-1/PD-L1 ELISA, plates coated with human PD-L1

SMILES	IC50
COc1cc(-c2cccc(-c3cccc(NC(=O)c4cn(C)c(=O)n(C)c4=O)c3Cl)c2Cl)cc(F)c1CNC[C@@H]1CCC(=O)N1 [Example 1.031]	< 10 nM
COc1cc(-c2cccc(-c3cccc(NC(=O)c4nn(C)c(=O)n(C)c4=O)c3C)c2C)cc(F)c1CNCCC1CCC(=O)N1 (centres unmarked) [Example 1.106]	< 10 nM
COc1cc(-c2cccc(-c3cccc(NC(=O)c4cn(C)c(=O)n(C)c4=O)c3Cl)c2Cl)cc(F)c1CN[C@H]1CCOC[C@H]1O [Example 1.008]	< 10 nM
COc1cc(-c2cccc(-c3cccc(Nc4nccc5nccnc45)c3C)c2Cl)cc(F)c1CNC[C@@H]1CCC(=O)N1 [Example 1.027]	< 10 nM
COc1cc(-c2cccc(-c3cccc(NC(=O)c4cn(C)c(=O)n(C)c4=O)c3C)c2F)cc(F)c1CNCC(C)(C)C(N)=O [Example 1.033]	< 10 nM
COc1cc(-c2cccc(-c3cccc(NC(=O)c4c[nH]c(=O)n(C)c4=O)c3C)c2C)cc(F)c1CN[C@@H]1CCOC[C@@H]1O [Example 1.111]	< 10 nM
COc1cc(-c2cccc(-c3cccc(NC(=O)c4cn(C)c(=O)n(C)c4=O)c3C)c2C)cc(F)c1CNC[C@H]1CCC(=O)N1 [Example 1.155]	< 10 nM
COc1cc(-c2cccc(-c3cccc(NC(=O)c4nn(C)c(=O)n(C)c4=O)c3C)c2C)cc(F)c1CN[C@H]1CNC(=O)C1 [Example 1.070]	< 10 nM
COc1cc(-c2cccc(-c3cccc(NC(=O)c4cn(C)c(=O)n(C)c4=O)c3C)c2C)cc(F)c1CN[C@H]1CNC(=O)C1 [Example 1.127]	< 10 nM
COc1cc(-c2cccc(-c3cccc(Nc4nccc5nccnc45)c3C)c2C)cc(F)c1CN[C@@H]1CCOC[C@@H]1O [Example 1.040]	< 10 nM
COc1cc(-c2cccc(-c3cccc(NC(=O)c4cn(C)c(=O)n(C)c4=O)c3C)c2C)cc(F)c1CN[C@H]1CCC[C@@H]1O [Example 1.129]	< 10 nM
COc1cc(-c2cccc(-c3cccc(NC(=O)c4cccn(C)c4=O)c3C)c2C)cc(F)c1CN(C)[C@@H]1CNC(=O)C1 [Example 1.074]	10 to 1000 nM
COc1cc(-c2cccc(-c3cccc(NC(=O)c4cccn(C)c4=O)c3C)c2C)cc(F)c1CN[C@H]1CNC(=O)C1 [Example 1.142]	< 10 nM
COc1cc(-c2cccc(-c3cccc(NC(=O)c4c[nH]c(=O)n(C)c4=O)c3C)c2C)cc(F)c1CN[C@H]1CNC(=O)C1 [Example 1.143]	< 10 nM
COc1cc(-c2cccc(-c3cccc(NC(=O)c4c[nH]c(=O)n(C)c4=O)c3C)c2C)cc(F)c1CNC[C@H]1CCC(=O)N1 [Example 1.158]	< 10 nM
COc1cc(-c2cccc(-c3cccc(NC(=O)c4c[nH]c(=O)n(C)c4=O)c3C)c2C)cc(F)c1CN[C@H]1CCOC1 [Example 1.050]	< 10 nM
COc1cc(-c2cccc(-c3cccc(NC(=O)c4cn(C)c(=O)n(C)c4=O)c3C)c2C)cc(F)c1CN[C@H]1CCC(=O)NC1 [Example 1.110]	< 10 nM
COc1cc(-c2cccc(-c3cccc(NC(=O)c4c[nH]c(=O)n(C)c4=O)c3C)c2C)cc(F)c1CNC1CCOCC1 [Example 1.053]	< 10 nM
COc1cc(-c2cccc(-c3cccc(NC(=O)c4cn(C)c(=O)n(C)c4=O)c3C)c2C)cc(F)c1CN[C@H]1CCC[C@H]1O [Example 1.147]	< 10 nM
COc1cc(-c2cccc(-c3cccc(NC(=O)c4nn(C)c(=O)n(C)c4=O)c3C)c2C)cc(F)c1CN[C@@H]1CCC(=O)NC1 [Example 1.069]	< 10 nM
COc1cc(-c2cccc(-c3cccc(NC(=O)c4cncn(C)c4=O)c3C)c2C)cc(F)c1CN[C@H]1CCC[C@@H]1O [Example 1.172]	< 10 nM
CC[C@@H](O)NCc1c(F)cc(-c2cccc(-c3cccc(Nc4nccc5c4C(=O)N(C)CC5)c3C)c2C)cc1OC [Example 1.190]	< 10 nM
COc1cc(-c2cccc(-c3cccc(NC(=O)c4nn(C)c(=O)n(C)c4=O)c3C)c2C)cc(F)c1CN[C@@H]1CCCNC1=O [Example 1.059]	10 to 1000 nM
COc1cc(-c2cccc(-c3cccc(NC(=O)c4cncn(C)c4=O)c3C)c2C)cc(F)c1CNCCC(N)=O [Example 1.091]	< 10 nM
COc1cc(-c2cccc(-c3cccc(NC(=O)c4c[nH]c(=O)n(C)c4=O)c3C)c2C)cc(F)c1CN[C@@H]1CCC(=O)NC1 [Example 1.094]	< 10 nM
COc1cc(-c2cccc(-c3cccc(NC(=O)c4cncn(C)c4=O)c3C)c2C)cc(F)c1CNC(C)(C)CO [Example 1.151]	< 10 nM
COc1cc(-c2cccc(-c3cccc(NC(=O)c4cccn(C)c4=O)c3C)c2C)cc(F)c1CN[C@@H]1CCC[C@H]1O [Example 1.117]	< 10 nM
COc1cc(-c2cccc(-c3cccc(NC(=O)c4cn(C)c(=O)n(C)c4=O)c3Cl)c2C)cc(F)c1CNC[C@@H]1CCC(=O)N1 [Example 1.030]	< 10 nM
COc1cc(-c2cccc(-c3cccc(NC(=O)c4nn(C)c(=O)n(C)c4=O)c3C)c2C)cc(F)c1CN(C)C[C@@H]1CCC(=O)N1 [Example 1.077]	< 10 nM
COc1cc(-c2cccc(-c3cccc(Nc4nccc5c4C(=O)N(C)CC5)c3C)c2C)cc(F)c1CN(C)C[C@@H]1CCC(=O)N1 [Example 1.192]	10 to 1000 nM

same assay, conditions: plate-coated human PD-L1, biotinylated Human PD-1, absorbance at 450 nm

SMILES	IC50
COc1cc(-c2cccc(-c3cccc(Nc4nccc5nccnc45)c3Cl)c2Cl)cc(F)c1CN1CC(C)(C(=O)O)C1 [Example 2.109]	< 10 nM
COc1cc(-c2cccc(-c3cccc(NC(=O)c4cn(C)c(=O)n(C)c4=O)c3C)c2Cl)cc(F)c1CN(C)[C@@H]1CCOC1 [Example 2.043]	< 10 nM
COc1cc(-c2cccc(-c3cccc(NC(=O)c4cn(C)c(=O)n(C)c4=O)c3F)c2Cl)cc(F)c1CN[C@@H]1CCOC[C@@H]1O [Example 2.106]	< 10 nM
COc1cc(-c2cccc(-c3cccc(NC(=O)c4cn(C)c(=O)n(C)c4=O)c3Cl)c2Cl)cc(F)c1CN[C@H]1CCOC1 [Example 2.066]	< 10 nM
CCOc1cc(-c2cccc(-c3cccc(NC(=O)c4cn(C)c(=O)n(C)c4=O)c3Cl)c2Cl)cc(F)c1CN[C@@H]1CCOC[C@@H]1O [Example 2.037]	< 10 nM
COc1cc(-c2cccc(-c3cccc(NC(=O)c4cn(C)c(=O)n(C)c4=O)c3Cl)c2C)cc(F)c1CN[C@H]1CCOC[C@H]1O [Example 2.103]	< 10 nM
COc1cc(-c2cccc(-c3cccc(NC(=O)c4cn(C)c(=O)n(C)c4=O)c3C)c2Cl)cc(F)c1CN[C@H]1CCCOC1 [Example 2.080]	< 10 nM
COc1cc(-c2cccc(-c3cccc(NC(=O)c4cn(C)c(=O)n(C)c4=O)c3Cl)c2Cl)cc(F)c1CN[C@H]1CCOC[C@@H]1O [Example 2.082]	< 10 nM
COc1cc(-c2cccc(-c3cccc(NC(=O)c4cn(C)c(=O)n(C)c4=O)c3Cl)c2Cl)cc(F)c1CN(C)[C@@H]1CNC(=O)C1 [Example 2.068]	< 10 nM
COc1cc(-c2cccc(-c3cccc(NC(=O)c4cn(C)c(=O)n(C)c4=O)c3C)c2Cl)cc(F)c1CN[C@@H]1CCOC1 [Example 2.098]	< 10 nM
COc1cc(-c2cccc(-c3cccc(NC(=O)c4c[nH]c(=O)n(C)c4=O)c3Cl)c2Cl)cc(F)c1CN[C@H]1CCOC[C@H]1O [Example 2.029]	< 10 nM
COc1cc(-c2cccc(-c3cccc(NC(=O)c4cn(C)c(=O)n(C)c4=O)c3Cl)c2Cl)cc(F)c1CNCC(C)(C)C(N)=O [Example 2.108]	< 10 nM
COc1cc(-c2cccc(-c3cccc(NC(=O)c4c[nH]c(=O)n(C)c4=O)c3C)c2Cl)cc(F)c1CN[C@@H]1CCOC[C@@H]1O [Example 2.035]	< 10 nM
COc1cc(-c2cccc(-c3cccc(Nc4nccc5nccnc45)c3C)c2Cl)cc(F)c1CNCC(C)(C)O [Example 2.112]	< 10 nM
COc1cc(-c2cccc(-c3cccc(NC(=O)c4cn(C)c(=O)n(C)c4=O)c3Cl)c2Cl)cc(F)c1CN[C@@H]1CCC(=O)NC1 [Example 2.107]	< 10 nM
